According to US20210085623A1, “Formulation” (Medherant Limited, priority 2017, published 2021):

How the values were obtained:
[1] = Passive release of ibuprofen from pressure sensitive adhesive patch, diffusion cells; conditions: Nylon membrane, patch without excipients
Text: Prior to determination of active pharmaceutical ingredient (API) diffusion across skin mimicking membranes, a passive release of ibuprofen from the pressure sensitive adhesive must be verified. […] Such an experiment can be performed using non-rate-limiting membranes, for example porous silicone, Nylon or polytetrafluoroethylene (PTFE). In this study, Nylon was employed as the test model for passive release.
All further mentioned patches contain 10 wt % of API. Unless stated otherwise, 6 sample patches were analysed in parallel. […] Experimental conditions are listed below.
Patch components: Pressure sensitive adhesive, ibuprofen, […]. Patch thickness: 300 μm Membrane type: Nylon, pore size 0.45 μm Apparatus: diffusion cells Acceptor medium: mixture of pH 7.4 PBS/2-(2-ethoxyethoxy) ethanol (90/10 vol.) […]

[2] = Permeation of ibuprofen from patches through Strat-M membranes, diffusion cells; assay type: in vitro ADME; conditions: Strat-M membrane, patch without excipients
Text: In order to determine the necessity for further modification of ibuprofen patches with excipients, permeation rates of the API were observed using Strat-M membranes. Strat-M membranes are produced by Merck Millipore as a synthetic transdermal diffusion model to avoid animal or human skin testing. There is a correlation tool on a dedicated website allowing a comparison with human skin. Permeation profiles can vary depending on a drug, but it proves that Strat-M membranes can be employed as a reliable evaluation of any transdermal system in terms of human skin penetration. It must be said that penetration profiles in the case of human skin may differ from the aforementioned membrane, but allows predicting the efficacy of patches with certain reliability.
Patches tested in this study are from the same batch as employed in release experiments and were run under the same conditions. Permeation profiles and release profiles of ibuprofen through Strat-M membranes are depicted in FIGS. 1 and 2, respectively. […]

SMILES: CC(C)Cc1ccc(C(C)C(=O)O)cc1 (stereo not drawn) [ibuprofen]
- Total Released Amount ([1]; 1 h): 227.93 μg cm^−2
- Total Released Amount ([1]; 2 h): 438.23 μg cm^−2
- Total Released Amount ([1]; 4 h): 726.09 μg cm^−2
- Total Released Amount ([1]; 6 h): 967.49 μg cm^−2
- Total Released Amount ([1]; 8 h): 1124.13 μg cm^−2
- Total Released Amount ([1]; 10 h): 1257.46 μg cm^−2
- Total Released Amount ([1]; 12 h): 1397.34 μg cm^−2
- Total Released Amount ([1]; 24 h): 1650.21 μg cm^−2
- Flux ([2]; 1 h): 1.29 μg cm^−2 h^−1
- Total Amount ([2]; 1 h): 1.291 μg cm^−2
- Flux ([2]; 2 h): 2.75 μg cm^−2 h^−1
- Total Amount ([2]; 2 h): 4.044 μg cm^−2
- Flux ([2]; 4 h): 2.71 μg cm^−2 h^−1
- Total Amount ([2]; 4 h): 9.466 μg cm^−2
- Flux ([2]; 6 h): 3.56 μg cm^−2 h^−1
- Total Amount ([2]; 6 h): 16.595 μg cm^−2
- Flux ([2]; 8 h): 3.91 μg cm^−2 h^−1
- Total Amount ([2]; 8 h): 24.424 μg cm^−2
- Flux ([2]; 10 h): 5.82 μg cm^−2 h^−1
- Total Amount ([2]; 10 h): 36.066 μg cm^−2
- Flux ([2]; 12 h): 6.92 μg cm^−2 h^−1
- Total Amount ([2]; 12 h): 49.915 μg cm^−2
- Flux ([2]; 24 h): 4.96 μg cm^−2 h^−1
- Total Amount ([2]; 24 h): 109.467 μg cm^−2
